Settings: from measured plasma protein binding in vitro of 92%

Q: Which unbound plasma fraction does the source give for `Cc1cc(-c2nnc(N)nc2-c2ccccc2)cc(C(F)(F)F)n1` [Compound 4k, 6-[2-Methyl-6-(trifluoromethyl)pyridin-4-yl]-5-phenyl-1,2,4-triazin-3-amine] here?
A: Its unbound plasma fraction is 8%.
